# Key:
# tumor cells = test: Mitophagy by transmission electron microscopy; type: cell-based; details: concentration 0.3 μM, work time 3 hours; FIG. 3
# Procedure: • (1) Apparatus: Transmission electron microscope Hitachi HT-7800 • (2) Reagent: glutaraldehyde • (3) Experimental method: cells are inoculated in a 6 cm diameter Petri dish and incubated with the compounds for 3 hours. The culture solution is poured out; a 2 mL glutaraldehyde working solution (2.5% glutaraldehyde and phosphate buffer (PB) system) restored to room temperature is added and put into a refrigerator at 4° C. after fixation for 15 minutes at room temperature; the fixation solution is diluted 2-3 times with PB after fixation for 2-3 hours, the PB used for washing is poured off, PB containing 5% Bovine albumin (BSA) is added with an amount of 1 mL, and the adherent fixed cells are scraped off using a cell scraper, collected into 1.5 mL centrifuge tubes, and centrifuged for 4-5 minutes at 2,500 revolutions per minute (rpm) at 4° C. to prepare samples. The images are analyzed by a transmission electron microscope.
# [1] = Immunohistochemistry of heart, liver, spleen, lung and kidney in tumor-bearing mice; type: in vivo, BALB/c (nu/nu) nude mice; details: 1 mg/kg intraperitoneal injection once a day for 15 days; FIG. 6
# Procedure: BALB/c (nu/nu) nude mice (with weights of 18-20 g and raised in an SPF-level animal room) are selected to construct a mouse transplantation tumor model in vitro, the mice are grouped and inoculated with human non-small cell lung cancer cells (A549), and tumor volumes in the mice grow to 100-300 mm^3. The drug is administered by intraperitoneal injection, and each mouse in an administration group is administered once a day and 1 mg/kg once according to body weight. In a control group, each mouse is administrated with a same volume of PBS buffer, the volume of each mouse is measured simultaneously, and the drug is continuously administered for 15 days. After the drug administration and treatment process is complete, the mice are killed by cervical dislocation, and the mouse tumors are stripped, photographed, and weighed.
Structure (SMILES),autophagosome formation / mitophagy (tumor cells),"toxic side effects (heart, liver, spleen, lung, kidney) [1]"
"CN(C(=O)CC[P+](c1ccccc1)(c1ccccc1)c1ccccc1)[C@H]1CC[C@@H](c2ccc(Cl)c(Cl)c2)c2ccccc21 [Mito-2-Ser, (3-(((1S,4S)-4-(3,4-dichlorophenyl)-1,2,3,4-tetrahydronaphthalen-1-yl)(methyl)amino)-3-propanoyl)triphenylphosphine]",induce autophagosome formation to phagocytize mitochondria,
"CN(C(=O)CCCCCCCCCC[P+](c1ccccc1)(c1ccccc1)c1ccccc1)[C@H]1CC[C@@H](c2ccc(Cl)c(Cl)c2)c2ccccc21 [Mito-10-Ser, (11-(((1S,4S)-4-(3,4-dichlorophenyl)-1,2,3,4-tetrahydronaphthalen-1-yl)(methyl)amino)-11-oxoundecyl)triphenylphosphine]",,did not have significant toxic side effects
"CN(C(=O)CCCCCCCCCCCC[P+](c1ccccc1)(c1ccccc1)c1ccccc1)[C@H]1CC[C@@H](c2ccc(Cl)c(Cl)c2)c2ccccc21 [Mito-12-Ser, (13-(((1S,4S)-4-(3,4-dichlorophenyl)-1,2,3,4-tetrahydronaphthalen-1-yl)(methyl)amino)-13-oxytridecyl)triphenylphosphine]",induce autophagosome formation to phagocytize mitochondria,
